According to ChEMBL document CHEMBL1212738, “Phenotypic and genotypic characterization of Enterobacteriaceae with decreased susceptibility to carbapenems: results from large hospital-based surveillance studies in China” (2010):
Values after ≈ are worked out from the molar mass of the structure shown.

Tests used:
Klebsiella pneumoniae [1] = assay: Antimicrobial activity against carbapenem-resistant Klebsiella pneumoniae ZJ69 deficient in SHV-28, ompK35/36 by CLSI method; assay type: functional
Klebsiella pneumoniae [2] = assay: Antimicrobial activity against carbapenem-resistant Klebsiella pneumoniae CY1 deficient in SHV-11, DHA-1, ompK35/36 by CLSI method; assay type: functional
Escherichia coli [3] = assay: Antimicrobial activity against Escherichia coli PU60T expressing CMY-2 by CLSI method; assay type: functional
Klebsiella pneumoniae [4] = assay: Antimicrobial activity against carbapenem-resistant Klebsiella pneumoniae GZ84 deficient in SHV-11, aac(6')-Ib-cr, ompK35 by CLSI method; assay type: functional
Klebsiella pneumoniae [5] = assay: Antimicrobial activity against Klebsiella pneumoniae WH76 expressing IMP-4, TEM-1, SHV-14, CTX-M-3, qnrS1 by CLSI method; assay type: functional
Enterobacter cloacae [6] = assay: Antimicrobial activity against carbapenem-resistant Enterobacter cloacae SZ92 deficient in IMP-4, TEM-1, CTX-M-14, DHA-1, qnrB10/B4-like, aac(6')-Ib, ompC by CLSI method; assay type: functional
Klebsiella pneumoniae [7] = assay: Antimicrobial activity against carbapenem-resistant Klebsiella pneumoniae PU8 deficient in SHV-11, DHA-1, aac(6')-Ib-cr, ompK35/36 by CLSI method; assay type: functional
Escherichia coli [8] = assay: Antimicrobial activity against Escherichia coli HX74T expressing CTX-M-3 by CLSI method; assay type: functional
Citrobacter freundii [9] = assay: Antimicrobial activity against Citrobacter freundii SZ63T expressing IMP-4, qnrS1by CLSI method; assay type: functional
Klebsiella pneumoniae [10] = assay: Antimicrobial activity against Klebsiella pneumoniae WH77 expressing IMP-4, TEM-1, SHV-14, CTX-M-3, qnrS1 by CLSI method; assay type: functional
Klebsiella pneumoniae [11] = assay: Antimicrobial activity against carbapenem-resistant Klebsiella pneumoniae PU105 deficient TEM-1, SHV-12, CTX-M-14, DHA-1, qnrB10/B4-like, aac(6')-Ib-cr, ompK35/36 by CLSI method; assay type: functional
Klebsiella pneumoniae [12] = assay: Antimicrobial activity against carbapenem-resistant Klebsiella pneumoniae ZJ71 deficient in KPC-2, TEM-1, SHV-11, CTX-M-14, ompK35 by CLSI method; assay type: functional
Escherichia coli [13] = assay: Antimicrobial activity against carbapenem-resistant Escherichia coli PU101 deficient in TEM-1, CTX-M-14, CMY-2, ompC by CLSI method; assay type: functional
Klebsiella pneumoniae [14] = assay: Antimicrobial activity against carbapenem-resistant Klebsiella pneumoniae XJ81 deficient in TEM-1, SHV-12, DHA-1, aac(6')-Ib, ompK35/36 by CLSI method; assay type: functional
Klebsiella pneumoniae [15] = assay: Antimicrobial activity against Klebsiella pneumoniae CY1T expressing SHV-11, DHA-1 by CLSI method; assay type: functional
Escherichia coli [16] = assay: Antimicrobial activity against Escherichia coli C600 by CLSI method; assay type: functional
Klebsiella pneumoniae [17] = assay: Antimicrobial activity against Klebsiella pneumoniae ZJ71T expressing KPC-2 by CLSI method; assay type: functional
Escherichia coli [18] = assay: Antimicrobial activity against Escherichia coli PU101T expressing CMY-2 by CLSI method; assay type: functional
Klebsiella pneumoniae [19] = assay: Antimicrobial activity against carbapenem-resistant Klebsiella pneumoniae GZ83 deficient in SHV-11, CTX-M-14, ompK35/36 by CLSI method; assay type: functional
Klebsiella pneumoniae [20] = assay: Antimicrobial activity against carbapenem-resistant Klebsiella pneumoniae PU5 deficient in SHV-12, DHA-1, aac(6')-Ib-cr, ompK35/36 by CLSI method; assay type: functional
Klebsiella pneumoniae [21] = assay: Antimicrobial activity against carbapenem-resistant Klebsiella pneumoniae FZ47 deficient in IMP-8, TEM-1, SHV-11, CTX-M-14, qnrB2, aac(6')-Ib, ompK35/36 by CLSI method; assay type: functional
Klebsiella pneumoniae [22] = assay: Antimicrobial activity against Klebsiella pneumoniae ZJ99 expressing KPC-2, CTX-M-3, qnrS1, ompK35 DE by CLSI method; assay type: functional
Klebsiella pneumoniae [23] = assay: Antimicrobial activity against carbapenem-resistant Klebsiella pneumoniae ZJ70 deficient in KPC-2, SHV-11, CTX-M-14, ompK35/36 by CLSI method; assay type: functional
Citrobacter freundii [24] = assay: Antimicrobial activity against Citrobacter freundii SZ62 expressing IMP-4, TEM-1, CMY-2, qnrS1, aac(6')-Ib-cr by CLSI method; assay type: functional
Klebsiella pneumoniae [25] = assay: Antimicrobial activity against carbapenem-resistant Klebsiella pneumoniae GZ66 deficient in SHV-11, DHA-1, ompK35/36 by CLSI method; assay type: functional
Citrobacter freundii [26] = assay: Antimicrobial activity against Citrobacter freundii SZ63 expressing IMP-4, qnrS1by CLSI method; assay type: functional
Klebsiella pneumoniae [27] = assay: Antimicrobial activity against carbapenem-resistant Klebsiella pneumoniae PU4 deficient in SHV-1, DHA-1, ompK35/36 by CLSI method; assay type: functional
Klebsiella aerogenes = assay: Antimicrobial activity against carbapenem-resistant Enterobacter aerogenes WH85 deficient in TEM-1, CTX-M-3, ompC/F by CLSI method; assay type: functional
Klebsiella pneumoniae [28] = assay: Antimicrobial activity against carbapenem-resistant Klebsiella pneumoniae FZ49 deficient in IMP-8, TEM-1, SHV-11, CTX-M-14, qnrB2, aac(6')-Ib, ompK35/36 by CLSI method; assay type: functional
Klebsiella pneumoniae [29] = assay: Antimicrobial activity against carbapenem-resistant Klebsiella pneumoniae CY75 deficient in SHV-11, DHA-1, ompK35/36 by CLSI method; assay type: functional
Enterobacter cloacae [30] = assay: Antimicrobial activity against carbapenem-resistant Enterobacter cloacae GX24 deficient in TEM-1, DHA-1, aac(6')-Ib, ompC by CLSI method; assay type: functional
Escherichia coli [31] = assay: Antimicrobial activity against Escherichia coli ZJ87T expressing KPC-2 by CLSI method; assay type: functional
Enterobacter cloacae [32] = assay: Antimicrobial activity against carbapenem-resistant Enterobacter cloacae GX56 deficient in ompC and expressing low levels of ompF DE by CLSI method; assay type: functional
Klebsiella pneumoniae [33] = assay: Antimicrobial activity against carbapenem-resistant Klebsiella pneumoniae SZ61 deficient in TEM-1, SHV-1a, CMY-2, ompK35/36 by CLSI method; assay type: functional
Klebsiella pneumoniae [34] = assay: Antimicrobial activity against Klebsiella pneumoniae ZJ99T expressing KPC-2, CTX-M-3, qnrS1 by CLSI method; assay type: functional
Escherichia coli [35] = assay: Antimicrobial activity against Escherichia coli C600 transconjugant WH77T expressing IMP-4, TEM-1, CTX-M-3, qnrS1 by CLSI method
Escherichia coli [36] = assay: Antimicrobial activity against Escherichia coli C600 transconjugant WH76T expressing IMP-4, TEM-1, CTX-M-3, qnrS1 by CLSI method
Klebsiella pneumoniae [37] = assay: Antimicrobial activity against carbapenem-resistant Klebsiella pneumoniae ZJ68 deficient in CTX-M-15, ompK35/36 by CLSI method
Escherichia coli [38] = assay: Antimicrobial activity against carbapenem-resistant Escherichia coli ZJ86 expressing KPC-2, TEM-1 with ompC loss by CLSI method
Escherichia coli [39] = assay: Antimicrobial activity against Escherichia coli C600 transconjugant SZ62T expressing IMP-4, qnrS1by CLSI method

Compound | MIC (Klebsiella pneumoniae [1]) [µg/mL] | MIC (Escherichia coli [3]) [µg/mL] | MIC (Klebsiella pneumoniae [4]) [µg/mL] | MIC (Enterobacter cloacae [6]) [µg/mL] | MIC (Klebsiella pneumoniae [7]) [µg/mL] | MIC (Citrobacter freundii [9]) [µg/mL] | MIC (Klebsiella pneumoniae [14]) [µg/mL] | MIC (Klebsiella pneumoniae [17]) [µg/mL] | MIC (Escherichia coli [18]) [µg/mL] | MIC (Klebsiella pneumoniae [19]) [µg/mL] | MIC (Klebsiella pneumoniae [20]) [µg/mL] | MIC (Klebsiella pneumoniae [21]) [µg/mL] | MIC (Klebsiella pneumoniae [23]) [µg/mL] | MIC (Citrobacter freundii [24]) [µg/mL] | MIC (Klebsiella pneumoniae [25]) [µg/mL] | MIC (Citrobacter freundii [26]) [µg/mL] | MIC (Klebsiella pneumoniae [27]) [µg/mL] | MIC (Klebsiella aerogenes) [µg/mL] | MIC (Klebsiella pneumoniae [28]) [µg/mL] | MIC (Klebsiella pneumoniae [29]) [µg/mL] | also measured
POLYMYXIN B | 1 | 0.25 | 0.5 | 0.5 | 1 | 0.5 | 0.5 | 0.5 | 0.25 | 1 | 1 | 1 | 0.5 | 0.5 | 0.5 | 0.5 | 0.5 | 0.5 | 1 | 1 | MIC (Klebsiella pneumoniae [2]): 1 µg/mL; MIC (Klebsiella pneumoniae [5]): 1 µg/mL; MIC (Escherichia coli [8]): 0.25 µg/mL; MIC (Klebsiella pneumoniae [10]): 1 µg/mL; MIC (Klebsiella pneumoniae [11]): 32 µg/mL; MIC (Klebsiella pneumoniae [12]): 1 µg/mL; MIC (Escherichia coli [13]): 0.5 µg/mL; MIC (Klebsiella pneumoniae [15]): 0.25 µg/mL; MIC (Escherichia coli [16]): 0.5 µg/mL; MIC (Klebsiella pneumoniae [22]): 1 µg/mL; MIC (Enterobacter cloacae [30]): 2 µg/mL; MIC (Escherichia coli [31]): 0.25 µg/mL; MIC (Enterobacter cloacae [32]): 0.5 µg/mL; MIC (Klebsiella pneumoniae [33]): 0.5 µg/mL; MIC (Klebsiella pneumoniae [34]): 0.25 µg/mL
C[C@@H](O)[C@H]1C(=O)N2C(C(=O)O)=C(SCCNC=N)C[C@H]12 [IMIPENEM ANHYDROUS] | 32 (≈ 107 µM) | 0.5 (≈ 1.67 µM) | 1 (≈ 3.34 µM) | 8 (≈ 26.7 µM) | 16 (≈ 53.4 µM) | 4 (≈ 13.4 µM) | 8 (≈ 26.7 µM) | 8 (≈ 26.7 µM) | 0.25 (≈ 0.835 µM) | 32 (≈ 107 µM) | 16 (≈ 53.4 µM) | 8 (≈ 26.7 µM) | > 256 | 4 (≈ 13.4 µM) | 32 (≈ 107 µM) | 4 (≈ 13.4 µM) | 16 (≈ 53.4 µM) | 8 (≈ 26.7 µM) | 8 (≈ 26.7 µM) | 32 (≈ 107 µM) | MIC (Klebsiella pneumoniae [2]): 32 µg/mL (≈ 107 µM); MIC (Escherichia coli [35]): 4 µg/mL (≈ 13.4 µM); MIC (Klebsiella pneumoniae [5]): 2 µg/mL (≈ 6.68 µM); MIC (Klebsiella pneumoniae [10]): 2 µg/mL (≈ 6.68 µM); MIC (Escherichia coli [36]): 4 µg/mL (≈ 13.4 µM); MIC (Klebsiella pneumoniae [11]): 32 µg/mL (≈ 107 µM); MIC (Klebsiella pneumoniae [12]): 16 µg/mL (≈ 53.4 µM); MIC (Escherichia coli [13]): 32 µg/mL (≈ 107 µM); MIC (Klebsiella pneumoniae [15]): 0.25 µg/mL (≈ 0.835 µM); MIC (Klebsiella pneumoniae [37]): 4 µg/mL (≈ 13.4 µM); MIC (Klebsiella pneumoniae [22]): 16 µg/mL (≈ 53.4 µM); MIC (Escherichia coli [38]): 8 µg/mL (≈ 26.7 µM); MIC (Escherichia coli [39]): 4 µg/mL (≈ 13.4 µM); MIC (Enterobacter cloacae [30]): 4 µg/mL (≈ 13.4 µM); MIC (Escherichia coli [31]): 8 µg/mL (≈ 26.7 µM); MIC (Enterobacter cloacae [32]): 4 µg/mL (≈ 13.4 µM); MIC (Klebsiella pneumoniae [33]): 16 µg/mL (≈ 53.4 µM); MIC (Klebsiella pneumoniae [34]): 16 µg/mL (≈ 53.4 µM)
C[C@@H](O)[C@H]1C(=O)N2C(C(=O)O)=C(S[C@@H]3CN[C@H](C(=O)N(C)C)C3)[C@H](C)[C@H]12 [MEROPENEM] | 4 (≈ 10.4 µM) | 0.032 (≈ 0.0834 µM) | 1 (≈ 2.61 µM) | 8 (≈ 20.9 µM) | 8 (≈ 20.9 µM) | 4 (≈ 10.4 µM) | 2 (≈ 5.22 µM) | 4 (≈ 10.4 µM) | 0.032 (≈ 0.0834 µM) | 8 (≈ 20.9 µM) | 8 (≈ 20.9 µM) | 2 (≈ 5.22 µM) | 256 (≈ 668 µM) | 4 (≈ 10.4 µM) | 4 (≈ 10.4 µM) | 4 (≈ 10.4 µM) | 4 (≈ 10.4 µM) | 8 (≈ 20.9 µM) | 2 (≈ 5.22 µM) | 8 (≈ 20.9 µM) | MIC (Escherichia coli [35]): 4 µg/mL (≈ 10.4 µM); MIC (Escherichia coli [8]): 0.064 µg/mL (≈ 0.167 µM); MIC (Escherichia coli [16]): 0.03 µg/mL (≈ 0.0782 µM); MIC (Klebsiella pneumoniae [37]): 8 µg/mL (≈ 20.9 µM); MIC (Escherichia coli [38]): 8 µg/mL (≈ 20.9 µM); MIC (Escherichia coli [39]): 4 µg/mL (≈ 10.4 µM); MIC (Enterobacter cloacae [30]): 2 µg/mL (≈ 5.22 µM); MIC (Escherichia coli [31]): 8 µg/mL (≈ 20.9 µM); MIC (Enterobacter cloacae [32]): 4 µg/mL (≈ 10.4 µM); MIC (Klebsiella pneumoniae [33]): 8 µg/mL (≈ 20.9 µM)
